Here are results for 31 molecules from patent US9120744B2, “Plasminogen activator inhibitor-1 inhibitors and methods of use thereof to modulate lipid metabolism” (THE REGENTS OF THE UNIVERSITY OF MICHIGAN, priority 2007, dated 2015).

Counter-ions that a name gives are not always drawn.

The first assay deals with T1, recombinant active human PAI-1 (Homo sapiens (Human), UniProt P05121). Put plainly: pH dependence of PAI-1 inhibition, fluorogenic uPA (or tPA) assay. It counts as biochemical. The following applies: pH 7.5 (FIG. 8); additional experiments.
T1 sequence (P05121 24-402): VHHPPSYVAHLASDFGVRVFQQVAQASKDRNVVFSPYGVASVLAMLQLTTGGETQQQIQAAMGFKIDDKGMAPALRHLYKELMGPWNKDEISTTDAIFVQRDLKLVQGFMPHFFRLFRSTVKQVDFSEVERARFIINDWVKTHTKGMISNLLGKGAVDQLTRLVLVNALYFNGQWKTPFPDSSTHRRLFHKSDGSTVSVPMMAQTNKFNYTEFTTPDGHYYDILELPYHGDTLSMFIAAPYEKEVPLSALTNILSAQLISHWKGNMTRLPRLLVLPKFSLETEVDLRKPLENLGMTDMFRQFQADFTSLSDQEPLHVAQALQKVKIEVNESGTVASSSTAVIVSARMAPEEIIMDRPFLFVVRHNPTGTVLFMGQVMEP
Take `O=C(OC[C@H]1OC(OC(=O)c2cc(O)c(O)c(O)c2)[C@H](OC(=O)c2cc(O)c(O)c(O)c2)[C@@H](OC(=O)c2cc(O)c(O)c(O)c2)[C@@H]1OC(=O)c1cc(O)c(O)c(O)c1)c1cc(O)c(O)c(O)c1` (stereo partly shown) [CDE-001]: the “PAI-1 inhibitory efficacy (in words)” value was “effective PAI-1 inhibitors”.

In the case of `O=C(OC[C@H]1O[C@@H](OC(=O)c2cc(O)c(O)c(O)c2)[C@@H](OC(=O)c2cc(O)c(O)c(O)c2)[C@@H](OC(=O)c2cc(O)c(O)c(O)c2)[C@@H]1OC(=O)c1cc(O)c(O)c(O)c1)c1cc(O)c(O)c(O)c1` [CDE-002], the “PAI-1 inhibitory efficacy (in words)” value was “effective PAI-1 inhibitors”.

Take `O=C(OC[C@H]1O[C@H](OC(=O)c2cc(O)c(O)c(O)c2)[C@H](OC(=O)c2cc(O)c(O)c(O)c2)[C@@H](OC(=O)c2cc(O)c(O)c(O)c2)[C@H]1OC(=O)c1cc(O)c(O)c(O)c1)c1cc(O)c(O)c(O)c1` [CDE-003]: the “PAI-1 inhibitory efficacy (in words)” value is “effective PAI-1 inhibitors”.

Consider `O=C(OC[C@H]1O[C@@H](OC(=O)c2cc(O)c(O)c(O)c2)[C@H](OC(=O)c2cc(O)c(O)c(O)c2)[C@@H](OC(=O)c2cc(O)c(O)c(O)c2)[C@H]1OC(=O)c1cc(O)c(O)c(O)c1)c1cc(O)c(O)c(O)c1` [CDE-004], for which the “PAI-1 inhibitory efficacy (in words)” value was “effective PAI-1 inhibitors”.

Consider `O=C(OC[C@H]1O[C@@H](OC(=O)c2cc(OCc3ccccc3)c(OCc3ccccc3)c(OCc3ccccc3)c2)[C@H](OC(=O)c2cc(OCc3ccccc3)c(OCc3ccccc3)c(OCc3ccccc3)c2)[C@@H](OC(=O)c2cc(OCc3ccccc3)c(OCc3ccccc3)c(OCc3ccccc3)c2)[C@H]1OC(=O)c1cc(OCc2ccccc2)c(OCc2ccccc2)c(OCc2ccccc2)c1)c1cc(OCc2ccccc2)c(OCc2ccccc2)c(OCc2ccccc2)c1` [CDE-006], for which the “PAI-1 inhibitory efficacy (in words)” value was “not inhibitory”.

For the molecule `O=C(OC[C@H]1O[C@H](OC(=O)c2cc(OCc3ccccc3)c(OCc3ccccc3)c(OCc3ccccc3)c2)[C@H](OC(=O)c2cc(OCc3ccccc3)c(OCc3ccccc3)c(OCc3ccccc3)c2)[C@@H](OC(=O)c2cc(OCc3ccccc3)c(OCc3ccccc3)c(OCc3ccccc3)c2)[C@H]1OC(=O)c1cc(OCc2ccccc2)c(OCc2ccccc2)c(OCc2ccccc2)c1)c1cc(OCc2ccccc2)c(OCc2ccccc2)c(OCc2ccccc2)c1` [CDE-007], the “PAI-1 inhibitory efficacy (in words)” value is reported as “not inhibitory”.

For a further assay, the target named is T1, recombinant active human PAI-1. The assay is described as follows: β-trypsin screening assay for PAI-1 inhibitors.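 Further: fluorogenic readout with PAI-1 and β-trypsin at 10:1 molar ratio, untreated PAI-1 wells set as 100% PAI-1 activity and β-trypsin alone as 0%.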 The assay is classed as biochemical.
Settings: not given
On to `CN1[C@@H]2CC[C@H]1C[C@@H](OC(=O)c1c[nH]c3ccccc13)C2.Cl` [TROPISETRON HCl], for which the “screening hit: restoration of β-trypsin activity” value (“screening hit: restoration” for short) is listed as “demonstrate PAI-1 inhibitor activity”.

Still in this assay, the particulars now being: 10 μM compound; hit = more than 3 standard deviations above control.
`Clc1ccc(CONC(Cn2ccnc2)c2ccc(Cl)cc2Cl)c(Cl)c1.O=[N+]([O-])O` (stereo not shown) [OXICONAZOLE NITRATE]: the “screening hit: restoration” value is listed as “demonstrate PAI-1 inhibitor activity”.

As to `NCCc1cc(O)c(O)cc1O` [OXIDOPAMINE HYDROCHLORIDE], the “screening hit: restoration” value is “demonstrate PAI-1 inhibitor activity”.

In the case of `N=C1C=CC(=C(c2ccc(N)cc2)c2ccc(N)cc2)C=C1` [PARAROSANILINE PAMOATE], the “screening hit: restoration” value is recorded as “demonstrate PAI-1 inhibitor activity”.

Take `C[C@H]1COc2c(C3(N)CC3)c(F)cc3c(=O)c(C(=O)O)cn1c23` [PAZUFLOXACIN]: the “screening hit: restoration” value is listed as “demonstrate PAI-1 inhibitor activity”.

As to `CCOP(=S)(OCC)SCSCC` [PHORATE], the “screening hit: restoration” value was “demonstrate PAI-1 inhibitor activity”.

Take `CN1CCN(CC(=O)N2c3ccccc3C(=O)Nc3cccnc32)CC1` [PIRENZEPINE HYDROCHLORIDE]: the “screening hit: restoration” value is recorded as “demonstrate PAI-1 inhibitor activity”.

`CCN(CC)CCNC(=O)c1ccc(N)cc1` [PROCAINAMIDE HYDROCHLORIDE]: the “screening hit: restoration” value was “demonstrate PAI-1 inhibitor activity”.

For `O=c1c(O)cccc2cc(O)c(O)c(O)c12` [PURPUROGALLIN], the “screening hit: restoration” value is recorded as “demonstrate PAI-1 inhibitor activity”.

Take `CCN(CC)CCCC(C)Nc1c2ccc(Cl)cc2nc2ccc(OC)cc12` (stereo not shown) [QUINACRINE HYDROCHLORIDE]: the “screening hit: restoration” value was “demonstrate PAI-1 inhibitor activity”.

For `O=C1c2ccc(O)c(O)c2C(=O)c2c(O)ccc(O)c21` [QUINALIZARIN, quinalizarin], the “screening hit: restoration” value was “demonstrate PAI-1 inhibitor activity”.

As for `C=C[C@H]1CN2CC[C@H]1C[C@H]2[C@H](OC(=O)OCC)c1ccnc2ccc(OC)cc12` [QUININE ETHYL CARBONATE], the “screening hit: restoration” value is given as “demonstrate PAI-1 inhibitor activity”.

Take `COc1ccc2[nH]cc(C3=CCNCC3)c2c1` [RU 24969]: the “screening hit: restoration” value was “demonstrate PAI-1 inhibitor activity”.

For the molecule `O=C(O)c1cc(O)c2c(c1)[C@H]([C@H]1c3cc(C(=O)O)cc(O)c3C(=O)c3c(O[C@@H]4O[C@H](CO)[C@@H](O)[C@H](O)[C@H]4O)cccc31)c1cccc(O[C@@H]3O[C@H](CO)[C@@H](O)[C@H](O)[C@H]3O)c1C2=O` [SENNOSIDE A], the “screening hit: restoration” value is given as “demonstrate PAI-1 inhibitor activity”.

On to `CC12CCC3C(CCC4(O)CC(O)CCC34/C=N/NC(N)=O)C1(O)CCC2C1=CC(=O)OC1` (stereo not shown) [STROPHANTHIDIN SEMICARBAZIDE], for which the “screening hit: restoration” value is “demonstrate PAI-1 inhibitor activity”.

Turning to `O=c1c(O)cccc2c([C@H]3Oc4cc(O)cc(O)c4C[C@H]3O)cc(O)c(O)c12` [THEAFLAVANIN], the “screening hit: restoration” value is “demonstrate PAI-1 inhibitor activity”.

For the molecule `O=C(O[C@H]1Cc2c(O)cc(O)cc2O[C@H]1c1cc(O)c(=O)c2c(O)c(O)cc([C@@H]3Oc4cc(O)cc(O)c4C[C@@H]3O)c2c1)c1cc(O)c(O)c(O)c1` [THEAFLAVIN MONOGALLATES], the “screening hit: restoration” value is “demonstrate PAI-1 inhibitor activity”.

With `O=c1c(O)cc([C@H]2Oc3cc(O)cc(O)c3C[C@H]2O)cc2c([C@H]3Oc4cc(O)cc(O)c4C[C@H]3O)cc(O)c(O)c12` [THEAFLAVIN], the “screening hit: restoration” value is recorded as “demonstrate PAI-1 inhibitor activity”.

With `CC(CCC(=O)O)[C@H]1CCC2C3CCC4CCCC[C@]4(C)C3CC[C@@]21C` (stereo partly shown) [URSOCHOLANIC ACID], the “screening hit: restoration” value was “demonstrate PAI-1 inhibitor activity”.

Consider `Cc1onc(-c2ccccc2)c1-c1ccc(S(N)(=O)=O)cc1` [VALDECOXIB], for which the “screening hit: restoration” value is recorded as “demonstrate PAI-1 inhibitor activity”.

Take `CC[C@@]1(O)C[C@@H]2CN(CCc3c([nH]c4ccccc34)[C@](C(=O)OC)(c3cc4c(cc3OC)N(C)[C@@H]3[C@]45CCN4CC=C[C@@](CC)(C(O)[C@]3(O)C(N)=O)[C@H]45)C2)C1.O=S(=O)(O)O` (stereo partly shown) [VINDESINE SULFATE]: the “screening hit: restoration” value was “demonstrate PAI-1 inhibitor activity”.

On to `Cc1cc(C(C)(C)C)cc(C)c1CC1=NCCN1` [XYLOMETAZOLINE HYDROCHLORIDE], for which the “screening hit: restoration” value was “demonstrate PAI-1 inhibitor activity”.

Take `COc1cc(C(=O)NS(=O)(=O)c2ccccc2C)ccc1Cc1cn(C)c2ccc(NC(=O)OC3CCCC3)cc12` [ZAFIRLUKAST]: the “screening hit: restoration” value is recorded as “demonstrate PAI-1 inhibitor activity”.

As to CHLORAMPHENICOL HEMISUCCINATE, the “screening hit: restoration” value was “demonstrate PAI-1 inhibitor activity”.

Take SAPPANONE A DIMETHYL ETHER: the “screening hit: restoration” value is on record as “demonstrate PAI-1 inhibitor activity”.
